Series [1] concerns the target T1, Protein deacetylase HDAC6 (Homo sapiens) (UniProt Q9UBN7).
T1 sequence (whole entry): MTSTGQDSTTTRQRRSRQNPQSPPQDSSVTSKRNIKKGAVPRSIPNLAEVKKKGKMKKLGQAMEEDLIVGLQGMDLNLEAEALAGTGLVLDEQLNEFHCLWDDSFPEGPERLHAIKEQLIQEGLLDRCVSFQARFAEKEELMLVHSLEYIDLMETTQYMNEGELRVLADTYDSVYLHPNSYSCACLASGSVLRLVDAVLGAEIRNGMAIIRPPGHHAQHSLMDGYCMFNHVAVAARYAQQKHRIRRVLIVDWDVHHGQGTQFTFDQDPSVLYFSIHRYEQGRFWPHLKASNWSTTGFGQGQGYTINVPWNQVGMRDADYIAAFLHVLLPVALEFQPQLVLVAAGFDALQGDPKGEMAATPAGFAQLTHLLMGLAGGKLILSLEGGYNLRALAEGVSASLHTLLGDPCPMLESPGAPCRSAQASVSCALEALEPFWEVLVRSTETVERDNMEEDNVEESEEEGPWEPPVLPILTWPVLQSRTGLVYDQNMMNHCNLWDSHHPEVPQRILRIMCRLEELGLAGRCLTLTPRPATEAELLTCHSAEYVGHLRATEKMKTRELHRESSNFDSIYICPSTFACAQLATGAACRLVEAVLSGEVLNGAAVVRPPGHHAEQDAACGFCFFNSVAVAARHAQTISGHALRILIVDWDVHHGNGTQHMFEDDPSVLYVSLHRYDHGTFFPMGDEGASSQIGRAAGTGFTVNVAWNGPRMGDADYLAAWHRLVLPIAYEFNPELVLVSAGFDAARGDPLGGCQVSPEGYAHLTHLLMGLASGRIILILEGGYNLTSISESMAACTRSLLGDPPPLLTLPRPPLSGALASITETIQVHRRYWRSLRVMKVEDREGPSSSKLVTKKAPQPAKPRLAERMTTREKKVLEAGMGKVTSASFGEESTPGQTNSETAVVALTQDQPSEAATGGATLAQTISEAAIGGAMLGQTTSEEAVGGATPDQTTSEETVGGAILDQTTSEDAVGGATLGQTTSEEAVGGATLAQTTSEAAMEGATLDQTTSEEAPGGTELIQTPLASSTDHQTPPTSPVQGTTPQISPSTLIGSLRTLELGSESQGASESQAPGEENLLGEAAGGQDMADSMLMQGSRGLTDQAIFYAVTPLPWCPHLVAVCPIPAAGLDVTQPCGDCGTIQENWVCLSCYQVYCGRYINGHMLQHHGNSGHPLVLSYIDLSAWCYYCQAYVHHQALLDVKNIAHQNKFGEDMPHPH
The experiment in a line: Inhibition of HDAC6 in human Huh-luc/neo7 cells assessed as alpha-tubulin acetylation at 5 to 60 uM by Western blotting analysis. The series is classed as cell-based.

A further series deals with Hepatitis C virus. Put plainly: Antiviral activity against HCV infected in human Huh-luc/neo7 cells after 72 hrs by luciferase assay. The series is classed as functional, organism-based, Hepacivirus hominis.
A short description of series [2]: Cytotoxicity against human HuH7 cells transfected with luc/neo plasmid assessed as cell viability after 72 hrs by MTT method. The format is cell-based, Huh-7.
Series [3] is described as follows: Selectivity index, ratio of CC50 for human HuH7 cells transfected with luc/neo plasmid to EC50 for HCV infected in human Huh-luc/neo7 cells. On the set-up: species or system Huh-7.
For series [4], the target named is T1, Protein deacetylase HDAC6 (Homo sapiens). The experiment in a line: Inhibition of HDAC6 in human Huh-luc/neo7 cells assessed as alpha-tubulin acetylation at 20 to 100 uM by Western blotting analysis. The format is cell-based. For orientation: A western blot detects proteins with antibodies after separation by electrophoresis.
Series [5] shares this target. Put plainly: Inhibition of HDAC6 in human Huh-luc/neo7 cells assessed as alpha-tubulin acetylation at 3 to 24 uM by Western blotting analysis. The format is cell-based.

The source made the active and inactive calls. No cut-off for these calls is given here.

Consider `Cc1ccc(C(=O)NO)cc1`, for which the inhibition result in series [1] was “Active”.
Broadly, the EC50 is the midpoint of the concentration-response curve. As usually defined, the CC50 is the concentration giving 50% cytotoxicity. In the case of `CN(O)C(=O)c1cccc[n+]1[O-]`, the EC50 in the series on Hepatitis C virus is > 1000 µM. Also, the CC50 at 72 h in series [2] is > 1000 µM.
In the case of `Cn1cccc(C(=O)NO)c1=O`, the half-maximal effective concentration (EC50) in the series on Hepatitis C virus was 12 µM. The “Ratio CC50/EC50” value in series [3] is given as >83. Further, the CC50 at 72 h in series [2] was > 1000 µM.
The matching figures for `COc1cccnc1C(=O)NO`: 5 µM, 180 and 880 µM.
Regarding `O=C(NO)c1ccccn1`, in series [4], the “HDAC6 inhibition (active/not active)” value is “inactive”. A half-maximal response with Hepatitis C virus (EC50) required 30 µM. In addition, the “Ratio CC50/EC50” value in series [3] is recorded as 24. For the same compound, the CC50 at 72 h in series [2] is 710 µM.
For `CONC(=O)c1ccccn1`, in the series on Hepatitis C virus, the EC50 was > 1000 µM. Moreover, the cytotoxic concentration (CC50) at 72 h in series [2] is > 1000 µM.
Regarding `O=C(NO)c1ccccc1`, in series [4], the “HDAC6 inhibition (active/not active)” value was “Active”.
Regarding `O=C(NO)c1ccc(Cl)cc1`, the inhibition result in series [5] is “Active”.
On to `O=C(NO)c1ncccc1Cl`, for which it took 8 µM to reach a half-maximal effect with Hepatitis C virus (EC50). Moreover, in series [3], the “Ratio CC50/EC50” value was 100. Besides, the CC50 at 72 h in series [2] worked out at 800 µM.
As to `O=C(NO)c1ccc[n+]([O-])c1`, the “HDAC6 inhibition (active/not active)” value in series [4] is “Active”. The response in the series on Hepatitis C virus was half-maximal at 20 µM (EC50). The “Ratio CC50/EC50” value in series [3] is listed as >50. In addition, the CC50 at 72 h in series [2] was > 1000 µM.
For `O=C(NO)c1ccncc1` the same measures were “Active”, 17 µM, 12 and 210 µM.
The matching figures for `O=C(NO)c1cccnc1` [NICOXAMAT]: “Active”, 25 µM, 18 and 450 µM.
For `O=C(NO)c1cc[n+]([O-])cc1` the same measures were “inactive”, 17 µM, >59 and > 1000 µM.
As to `O=C(NO)c1cccc[n+]1[O-]`, the “HDAC6 inhibition (active/not active)” value in series [4] is “inactive”. Further, a half-maximal response with Hepatitis C virus (EC50) required 6 µM. In addition, in series [3], the “Ratio CC50/EC50” value amounted to 150. For the same compound, the CC50 at 72 h in series [2] was determined as 900 µM.
In the case of `CN(O)C(=O)c1ccccn1`, the EC50 with Hepatitis C virus amounted to 240 µM. In addition, in series [3], the “Ratio CC50/EC50” value is listed as >4. For the same compound, the CC50 at 72 h in series [2] is > 1000 µM.

These data come from ChEMBL document CHEMBL3596169, “Pyridine hydroxamic acids are specific anti-HCV agents affecting HDAC6” (Bioorg Med Chem Lett, 2015).
